Measured values published in ChEMBL document CHEMBL1126778, “Adenosine A1 antagonists. 3. Structure-activity relationships on amelioration against scopolamine- or N6-((R)-phenylisopropyl)adenosine-induced cognitive disturbance” (J Med Chem, 1993).

What was measured:
[1] = system: Mus musculus; assay: Acquisition time in (R)-PIA) induced avoidance test (performed in mice) for antagonistic activity after p.o. administration of 0.31 mg/kg; format: functional; conditions: route oral
[2] = system: Rattus norvegicus; assay: Acquisition time in Scopolamine induced avoidance test (performed in rat) for antagonistic activity after peroral administration of 20 mg/kg; format: functional; conditions: route oral
[3] = system: Rattus norvegicus; assay: Retention time in Scopolamine induced avoidance test (performed in rat) for antagonistic activity after peroral administration of 20 mg/kg; format: functional, organism-based; parameters: dose 20 mg/kg
[4] = system: Mus musculus; assay: Retention time in (R)-PIA) induced avoidance test (performed in mice) for antagonistic activity after peroral administration of 0.31 mg/kg; format: functional, organism-based; parameters: dose 0.31 mg/kg
[5] = target: Adenosine A2 receptor (Homo sapiens, UniProt P29275+P29274); assay: Binding affinity towards Adenosine A2 receptor of human platelets with [125I]-N6-aminobenzyladenosine
[6] = system: Mus musculus; assay: Retention time in (R)-PIA) induced avoidance test (performed in mice) for antagonistic activity after p.o. administration of 1.25 mg/kg; format: functional, organism-based; parameters: dose 1.25 mg/kg
[7] = system: Rattus norvegicus; assay: Acquisition time in Scopolamine induced avoidance test (performed in rat) for antagonistic activity after p.o. administration of 0.31 mg/kg; format: functional; conditions: route oral
[8] = system: Rattus norvegicus; assay: Retention time in Scopolamine induced avoidance test (performed in rat) for antagonistic activity after peroral administration of 1.25 mg/kg; format: functional, organism-based; parameters: dose 1.25 mg/kg
[9] = system: Mus musculus; assay: Acquisition time in (R)-PIA) induced avoidance test (performed in mice) for antagonistic activity after peroral administration of 5 mg/kg; format: functional; conditions: route oral
[10] = system: Rattus norvegicus; assay: Retention time in Scopolamine induced avoidance test (performed in […]) for antagonistic activity after peroral administration of 5 mg/kg; format: functional, organism-based; parameters: dose 5 mg/kg
[11] = system: Mus musculus; assay: Retention time in (R)-PIA) induced avoidance test (performed in mice) for antagonistic activity after peroral administration of 5 mg/kg; format: functional, organism-based; parameters: dose 5 mg/kg
[12] = target: T1, Adenosine receptor A1 (Bos taurus, UniProt P28190); assay: Binding affinity towards Adenosine A1 receptor of bovine brain at 10e-5 M with [125I]-N6-aminobenzyladenosine
T1 sequence (P28190 whole entry): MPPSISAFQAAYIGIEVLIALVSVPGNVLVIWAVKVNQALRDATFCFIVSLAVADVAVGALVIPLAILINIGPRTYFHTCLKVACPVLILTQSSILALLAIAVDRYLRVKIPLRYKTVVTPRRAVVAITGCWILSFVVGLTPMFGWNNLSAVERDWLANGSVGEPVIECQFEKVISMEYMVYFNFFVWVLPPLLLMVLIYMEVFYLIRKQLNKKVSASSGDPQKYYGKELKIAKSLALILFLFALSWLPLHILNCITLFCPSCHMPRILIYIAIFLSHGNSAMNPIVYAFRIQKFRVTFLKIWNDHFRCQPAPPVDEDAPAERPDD

[13] = system: Mus musculus; assay: Acquisition time in (R)-PIA) induced avoidance test (performed in mice) for antagonistic activity after peroral administration of 0.08 mg/kg; format: functional; conditions: route oral
[14] = system: Mus musculus; assay: Acquisition time in (R)-PIA) induced avoidance test (performed in mice) for antagonistic activity after peroral administration of 0.02 mg/kg; conditions: route oral
[15] = system: Rattus norvegicus; assay: Retention time in Scopolamine induced avoidance test (performed in rat) for antagonistic activity after p.o. administration of 0.08 mg/kg; format: functional, organism-based; parameters: dose 0.08 mg/kg
[16] = system: Mus musculus; assay: Retention time in (R)-PIA) induced avoidance test (performed in mice) for antagonistic activity after peroral administration of 0.02 mg/kg
[17] = system: Rattus norvegicus; assay: Retention time in Scopolamine induced avoidance test (performed in rat) for antagonistic activity after p.o. administration of 0.31 mg/kg; format: functional, organism-based; parameters: dose 0.31 mg/kg
[18] = system: Rattus norvegicus; assay: Acquisition time in Scopolamine induced avoidance test (performed in rat) for antagonistic activity after p.o. administration of 0.08 mg/kg; format: functional; conditions: route oral
[19] = system: Mus musculus; assay: Retention time in (R)-PIA) induced avoidance test (performed in mice) for antagonistic activity after peroral administration of 0.08 mg/kg; format: functional, organism-based; parameters: dose 0.08 mg/kg
[20] = system: Mus musculus; assay: Acquisition time in (R)-PIA) induced avoidance test (performed in mice) for antagonistic activity after p.o. administration of 1.25 mg/kg; format: functional; conditions: route oral
[21] = system: Rattus norvegicus; assay: Acquisition time in Scopolamine induced avoidance test (performed in rat) for antagonistic activity after peroral administration of 1.25 mg/kg; format: functional; conditions: route oral
[22] = system: Rattus norvegicus; assay: Acquisition time in Scopolamine induced avoidance test (performed in rat) for antagonistic activity after p.o. administration of 5 mg/kg; format: functional; conditions: route oral

`CCCn1c(=O)c2nc(C3CCCC3)[nH]c2n(CCc2ccc(NC(=O)C(C)C)cc2)c1=O` was tested, and the Acquisition time [1] was 29.3 s, the Acquisition time [2] was 9 s and the Retention time [3] was 65.4 s. The Retention time [4] was 88.6 s, the Ki [5] was > 100 µM and the Retention time [6] was 171 s. It also gave an Acquisition time [7] of 10.1 s, a Retention time [8] of 19.3 s and an Acquisition time [9] of 34.4 s. It also gave a Retention time [10] of 20 s, a Retention time [11] of 94.7 s and a Ki [12] of 0.016 µM. It also gave an Acquisition time [13] of 16 s, an Acquisition time [14] of 6 s and a Retention time [15] of 10.7 s. The Retention time [16] was 9.4 s, the Retention time [17] was 18.6 s and the Acquisition time [18] was 10.1 s. The Retention time [19] was 32.9 s, the Acquisition time [20] was 33.3 s and the Acquisition time [21] was 6.6 s. It also gave an Acquisition time [22] of 11.9 s.
